Numbered stars: 1 amine (or outer) side, 2 acyl side, 3 side chain; on linkers, the order of the positions; unused ones are H or OH. Bridge positions count the residues as written; N and C are the ends. Peptide text beside a SMILES is read from it. TBMB = c1c(C[*:1])cc(C[*:3])cc1C[*:2]
target: T1, human urokinase-type plasminogen activator (huPA) (Homo sapiens, UniProt P00749); experiment: huPA inhibition, fluorogenic enzyme activity assay (Z-Gly-Gly-Arg-AMC), Ki by Cheng-Prusoff; assay type: biochemical; details: 25 °C, pH 7.4, substrate 50 μM, mean ± S.E. of at least three measurements, read-out: Ki
T1 construct: (UPA-LMW, Molecular Innovations, Novi, MI, USA) 1.5 nM; purchased Molecular Innovations UPA-LMW
Method: bicyclic peptides. The activity assay was performed by incubating […] huPA with 50 μM fluorogenic substrate Z-Gly-Gly-Arg-AMC (50 μM; Bachem, Bubendorf, Switzerland) and […]
NaCl, 10 mM MgCl2, 1mM CaCl2, 0.1% w/v BSA, 0.01% v/v Triton-X100 and 5% v/v DMSO.
The measurements were performed on a Tecan microplate reader (Tecan infinite 200 pro, Tecan Trading AG, Switzerland) using black microfluor 96-well plate Nunc MicroWell, (Thermo Fisher Scientific, Dreieich, Germany) The enzymatic reactions were performed at 25 °C for 30 min, under shacking with an excitation wavelength of 355 nm and an emission recording at 460 nm. The initial velocities were monitored as changes in fluorescence intensity. The sigmoidal curves were fitted to the data using the following non-linear regression equation for the inhibitory dose-response curves with variable slope (2): […]
where x is the peptide concentration, y is the residual percentage of protease activity and p is the hill slope. Half maximum inhibitory concentration (IC50) values were derived from the fitted curves from GraphPad Prism 8 8.0.0. software (GraphPad software, Inc., San Diego, California). The final Ki was subsequently determined using the Cheng-Prusoff equation (3): […]
where Km (115 μM) is the Michaelis constant for the hydrolysis of Z-Gly-Gly-Arg-AMC catalysed by huPA which has been determined by standard Michaelis-Menten equation.
Values were determined using either OriginPro 8G software (OriginLab Corporation, Northamppton, MA, USA) or GraphPad Prism 8.0.0. software (GraphPad software, Inc., San […]
Recombinant production of the catalytic domain of human urokinase-type […]
The low molecular weight (LMW) human urokinase-type plasminogen activator (huPA) comprising the truncated 23 amino acid peptide fragment of chain A (Lys136-Lys158 in […]

Row | Ki | SMILES
1 | 11.6 ± 1.2 nM | CC(C)[C@@H]1NC(=O)[C@H](CCC(=O)O)NC(=O)[C@H](Cc2ccc(O)cc2)NC(=O)[C@H](CCCNC(=N)N)NC(=O)[C@H](CC(=O)O)NC(=O)[C@@H](NC(=O)[C@H](C)N)CSCc2cc3cc(c2)CSC[C@@H](C(=O)NCC(N)=O)NC(=O)[C@@H]2CCCN2C(=O)CNC(=O)CNC(=O)[C@H](CCCNC(=N)N)NC(=O)CNC(=O)[C@H](CCCNC(=N)N)NC(=O)[C@H](CSC3)NC(=O)[C@H](CC(=O)O)NC1=O [UK966] (H-ACDRYEVDCRGRGGPCG-NH2; linker 2-9-16 via TBMB)
2 | 18.1 ± 0.3 nM | CC(C)[C@@H]1NC(=O)[C@H](CCC(=O)O)NC(=O)[C@H](Cc2ccccc2)NC(=O)[C@H](CCCNC(=N)N)NC(=O)[C@H](CO)NC(=O)[C@@H](NC(=O)[C@H](C)N)CSCc2cc3cc(c2)CSC[C@@H](C(=O)NCC(N)=O)NC(=O)[C@@H]2CCCN2C(=O)CNC(=O)CNC(=O)[C@H](CCCNC(=N)N)NC(=O)CNC(=O)[C@H](CCCNC(=N)N)NC(=O)[C@H](CSC3)NC(=O)[C@H](CC(=O)O)NC1=O [UK967] (H-ACSRFEVDCRGRGGPCG-NH2; linker 2-9-16 via TBMB)
3 | 5.5 ± 0.4 nM | CC(C)[C@@H]1NC(=O)[C@H](Cc2ccc(O)cc2)NC(=O)[C@H](CCCNC(=N)N)NC(=O)[C@H](CO)NC(=O)[C@@H](NC(=O)[C@H](C)N)CSCc2cc3cc(c2)CSC[C@@H](C(=O)NCC(N)=O)NC(=O)[C@@H]2CCCN2C(=O)CNC(=O)CNC(=O)[C@H](CCCNC(=N)N)NC(=O)CNC(=O)[C@H](CCCNC(=N)N)NC(=O)[C@H](CSC3)NC(=O)[C@H](CC(=O)O)NC(=O)[C@H](C(C)C)NC1=O [UK968] (H-ACSRYVVDCRGRGGPCG-NH2; linker 2-9-16 via TBMB)
4 | 5.3 ± 0.2 nM | CC(C)[C@@H]1NC(=O)[C@H](Cc2ccc(O)cc2)NC(=O)[C@H](CCCNC(=N)N)NC(=O)[C@H](CC(=O)O)NC(=O)[C@@H](NC(=O)[C@H](C)N)CSCc2cc3cc(c2)CSC[C@@H](C(=O)NCC(N)=O)NC(=O)[C@@H]2CCCN2C(=O)CNC(=O)CNC(=O)[C@H](CCCNC(=N)N)NC(=O)CNC(=O)[C@H](CCCNC(=N)N)NC(=O)[C@H](CSC3)NC(=O)[C@H](CC(=O)O)NC(=O)[C@H](C(C)C)NC1=O [UK969] (H-ACDRYVVDCRGRGGPCG-NH2; linker 2-9-16 via TBMB)
5 | 14.8 nM | CC(C)[C@@H]1NC(=O)[C@H](Cc2c[nH]c3ccccc23)NC(=O)[C@H](CCCNC(=N)N)NC(=O)[C@H](CO)NC(=O)[C@@H](NC(=O)[C@H](C)N)CSCc2cc3cc(c2)CSC[C@@H](C(=O)NCC(N)=O)NC(=O)[C@@H]2CCCN2C(=O)CNC(=O)CNC(=O)[C@H](CCCNC(=N)N)NC(=O)CNC(=O)[C@H](CCCNC(=N)N)NC(=O)[C@H](CSC3)NC(=O)[C@H](CC(=O)O)NC(=O)[C@H]([C@@H](C)O)NC1=O [UK972] (H-ACSRWVTDCRGRGGPCG-NH2; linker 2-9-16 via TBMB)

More lines, now with the values behind:

Row | SMILES | Ki
6 | CC(C)[C@@H]1NC(=O)[C@H](CCC(=O)O)NC(=O)[C@H](Cc2ccc(O)cc2)NC(=O)[C@H](CCCN=C(N)N)NC(=O)[C@H](CO)NC(=O)[C@@H](NC(=O)[C@H](C)N)CSCc2cc3cc(c2)CSC[C@H](NC(=O)[C@H](CC(=O)O)NC1=O)C(=O)N[C@@H](CCCN=C(N)N)C(=O)NCC(=O)N[C@@H](CCCN=C(N)N)C(=O)NCC(=O)N[C@@H](CO)C(=O)N[C@@H](C)C(=O)N[C@H](C(=O)NCC(N)=O)CSC3 [UK18, reference compound] (H-ACSRYEVDCRGRGSACG-NH2; linker 2-9-16 via TBMB) | 54.7 ± 8 nM
7 | CC(C)[C@@H]1NC(=O)CNC(=O)CNC(=O)[C@H](CCCNC(=N)N)NC(=O)CNC(=O)[C@H](CCCNC(=N)N)NC(=O)[C@@H]2CSCc3cc(cc(c3)CSC[C@@H](C(=O)NCC(N)=O)NC1=O)CSC[C@H](NC(=O)[C@H](C)N)C(=O)N[C@@H](CC(=O)O)C(=O)N[C@@H](CCCNC(=N)N)C(=O)N[C@@H](Cc1ccccc1)C(=O)N[C@@H](C(C)C)C(=O)N[C@@H](C(C)C)C(=O)N[C@@H](CC(=O)O)C(=O)N2 [UK956] (H-ACDRFVVDCRGRGGVCG-NH2; linker 2-9-16 via TBMB) | 94.7 ± 0.3 nM
8 | CC(C)[C@@H]1NC(=O)[C@H](Cc2ccccc2)NC(=O)[C@H](CCCNC(=N)N)NC(=O)[C@H](CC(=O)O)NC(=O)[C@@H](NC(=O)[C@H](C)N)CSCc2cc3cc(c2)CSC[C@@H](C(=O)NCC(N)=O)NC(=O)[C@@H]2CCCN2C(=O)CNC(=O)CNC(=O)[C@H](CCCNC(=N)N)NC(=O)CNC(=O)[C@H](CCCNC(=N)N)NC(=O)[C@H](CSC3)NC(=O)[C@H](CC(=O)O)NC(=O)[C@H](C(C)C)NC1=O [UK957] (H-ACDRFVVDCRGRGGPCG-NH2; linker 2-9-16 via TBMB) | 7.4 ± 0.9 nM
9 | CC(C)[C@@H]1NC(=O)[C@H](CO)NC(=O)CNC(=O)[C@H](CCCNC(=N)N)NC(=O)CNC(=O)[C@H](CCCNC(=N)N)NC(=O)[C@@H]2CSCc3cc(cc(c3)CSC[C@@H](C(=O)NCC(N)=O)NC1=O)CSC[C@H](NC(=O)[C@H](C)N)C(=O)N[C@@H](CC(=O)O)C(=O)N[C@@H](CCCNC(=N)N)C(=O)N[C@@H](Cc1ccccc1)C(=O)N[C@@H](C(C)C)C(=O)N[C@@H](C(C)C)C(=O)N[C@@H](CC(=O)O)C(=O)N2 [UK958] (H-ACDRFVVDCRGRGSVCG-NH2; linker 2-9-16 via TBMB) | 154.9 ± 1 nM
10 | CC(C)[C@@H]1NC(=O)[C@H](Cc2ccccc2)NC(=O)[C@H](CCCNC(=N)N)NC(=O)[C@H](CC(=O)O)NC(=O)[C@@H](NC(=O)[C@H](C)N)CSCc2cc3cc(c2)CSC[C@@H](C(=O)NCC(N)=O)NC(=O)[C@@H]2CCCN2C(=O)[C@H](CO)NC(=O)CNC(=O)[C@H](CCCNC(=N)N)NC(=O)CNC(=O)[C@H](CCCNC(=N)N)NC(=O)[C@H](CSC3)NC(=O)[C@H](CC(=O)O)NC(=O)[C@H](C(C)C)NC1=O [UK959] (H-ACDRFVVDCRGRGSPCG-NH2; linker 2-9-16 via TBMB) | 77.5 ± 0.2 nM
11 | CC(C)[C@@H]1NC(=O)CNC(=O)CNC(=O)[C@H](CCCNC(=N)N)NC(=O)CNC(=O)[C@H](CCCNC(=N)N)NC(=O)[C@@H]2CSCc3cc(cc(c3)CSC[C@@H](C(=O)NCC(N)=O)NC1=O)CSC[C@H](NC(=O)[C@H](C)N)C(=O)N[C@@H](CC(=O)O)C(=O)N[C@@H](CCCNC(=N)N)C(=O)N[C@@H](Cc1ccccc1)C(=O)N[C@@H](CCC(=O)O)C(=O)N[C@@H](C(C)C)C(=O)N[C@@H](CC(=O)O)C(=O)N2 [UK960] (H-ACDRFEVDCRGRGGVCG-NH2; linker 2-9-16 via TBMB) | 81.2 ± 0.3 nM
12 | CC(C)[C@@H]1NC(=O)[C@H](CCC(=O)O)NC(=O)[C@H](Cc2ccccc2)NC(=O)[C@H](CCCNC(=N)N)NC(=O)[C@H](CC(=O)O)NC(=O)[C@@H](NC(=O)[C@H](C)N)CSCc2cc3cc(c2)CSC[C@@H](C(=O)NCC(N)=O)NC(=O)[C@@H]2CCCN2C(=O)CNC(=O)CNC(=O)[C@H](CCCNC(=N)N)NC(=O)CNC(=O)[C@H](CCCNC(=N)N)NC(=O)[C@H](CSC3)NC(=O)[C@H](CC(=O)O)NC1=O [UK961] (H-ACDRFEVDCRGRGGPCG-NH2; linker 2-9-16 via TBMB) | 16.2 nM
13 | CC(C)[C@@H]1NC(=O)[C@H](CO)NC(=O)CNC(=O)[C@H](CCCNC(=N)N)NC(=O)CNC(=O)[C@H](CCCNC(=N)N)NC(=O)[C@@H]2CSCc3cc(cc(c3)CSC[C@@H](C(=O)NCC(N)=O)NC1=O)CSC[C@H](NC(=O)[C@H](C)N)C(=O)N[C@@H](CC(=O)O)C(=O)N[C@@H](CCCNC(=N)N)C(=O)N[C@@H](Cc1ccccc1)C(=O)N[C@@H](CCC(=O)O)C(=O)N[C@@H](C(C)C)C(=O)N[C@@H](CC(=O)O)C(=O)N2 [UK962] (H-ACDRFEVDCRGRGSVCG-NH2; linker 2-9-16 via TBMB) | 81 ± 7.9 nM
14 | CC(C)[C@@H]1NC(=O)[C@H](CCC(=O)O)NC(=O)[C@H](Cc2ccccc2)NC(=O)[C@H](CCCNC(=N)N)NC(=O)[C@H](CC(=O)O)NC(=O)[C@@H](NC(=O)[C@H](C)N)CSCc2cc3cc(c2)CSC[C@@H](C(=O)NCC(N)=O)NC(=O)[C@@H]2CCCN2C(=O)[C@H](CO)NC(=O)CNC(=O)[C@H](CCCNC(=N)N)NC(=O)CNC(=O)[C@H](CCCNC(=N)N)NC(=O)[C@H](CSC3)NC(=O)[C@H](CC(=O)O)NC1=O [UK963] (H-ACDRFEVDCRGRGSPCG-NH2; linker 2-9-16 via TBMB) | 81.4 ± 0.9 nM
15 | CC(C)[C@@H]1NC(=O)[C@H](CCC(=O)O)NC(=O)[C@H](Cc2ccc(O)cc2)NC(=O)[C@H](CCCNC(=N)N)NC(=O)[C@H](CO)NC(=O)[C@@H](NC(=O)[C@H](C)N)CSCc2cc3cc(c2)CSC[C@@H](C(=O)NCC(N)=O)NC(=O)[C@@H]2CCCN2C(=O)[C@H](CO)NC(=O)CNC(=O)[C@H](CCCNC(=N)N)NC(=O)CNC(=O)[C@H](CCCNC(=N)N)NC(=O)[C@H](CSC3)NC(=O)[C@H](CC(=O)O)NC1=O [UK964] (H-ACSRYEVDCRGRGSPCG-NH2; linker 2-9-16 via TBMB) | 31.4 ± 0.1 nM
16 | CC(C)[C@@H]1NC(=O)[C@H](CCC(=O)O)NC(=O)[C@H](Cc2ccc(O)cc2)NC(=O)[C@H](CCCNC(=N)N)NC(=O)[C@H](CO)NC(=O)[C@@H](NC(=O)[C@H](C)N)CSCc2cc3cc(c2)CSC[C@@H](C(=O)NCC(N)=O)NC(=O)[C@@H]2CCCN2C(=O)CNC(=O)CNC(=O)[C@H](CCCNC(=N)N)NC(=O)CNC(=O)[C@H](CCCNC(=N)N)NC(=O)[C@H](CSC3)NC(=O)[C@H](CC(=O)O)NC1=O [UK965] (H-ACSRYEVDCRGRGGPCG-NH2; linker 2-9-16 via TBMB) | 12.3 ± 1 nM
